This is an account of results in US11453632B2, “1-phenyl-2-phenylethane derivative” (KAO CORPORATION, priority 2018, dated 2022).

A word on the melting point: it is the temperature, or range, at which the solid turns liquid.

Series [1] relates to back skin browning induced by testosterone. Description: Effect on sebum secretion (back skin browning) in testosterone-treated rat. As to conditions: testosterone 3 mg/kg/day plus test substance, subcutaneous osmotic pump, 28 days. It counts as in vivo. An excerpt: 12-week-old male Slc:SD (SPF) rats were obtained from Japan SLC, Inc. An acclimatization period was established for 1 week after receipt. During the acclimatization period, the rats were allowed to freely ingest a powder diet (AIN-93G). 2) Implantation of Osmotic Pump After body weight measurement, back hair was shaved under isoflurane (AbbVie GK) inhalation anesthesia, and carprofen was subcutaneously administered to the rats. Then, an incision of approximately 1 cm at the maximum was made on the cranial side in the back. An osmotic minipump Alzet (Muromachi Kikai Co., Ltd.) containing testosterone and compound 17-F or finasteride (Sigma-Aldrich Co. LLC) was subcutaneously implanted. From this osmotic pump, testosterone (3 mg/kg body weight/day) (Sigma-Aldrich Co. LLC) and compound 17-F (0.1 mg/body weight/day or 1 mg/kg body weight/day) or finasteride (0.1 mg/kg body weight/day or 1 mg/kg body weight/day) were continuously administered for 28 days. Since the implantation of the osmotic pump, the rats were allowed to freely ingest customized feed AIN-93G (Oriental Yeast Co., Ltd.) free from components derived from soybeans. 3) Photographing of Skin and Harvesting of Prostate After a lapse of 28 days, body weights were measured, and subsequently, the rats were euthanized by blood letting under isoflurane anesthesia. […] Wet weights were measured. […]

Series [2] concerns prostate of testosterone-induced prostatic hyperplasia rat. Description: Efficacy on prostate in testosterone-induced prostatic hyperplasia rat. It counts as in vivo. As to conditions: testosterone 3 mg/kg/day plus test substance 0.1 or 1 mg/kg body weight/day, subcutaneous osmotic pump, 28 days, vs testosterone alone. An excerpt:
12-week-old male Slc:SD (SPF) rats were obtained from Japan SLC, Inc. An acclimatization period was established for 1 week after receipt. During the acclimatization period, the rats were allowed to freely ingest a powder diet (AIN-93G).
2) Implantation of Osmotic Pump
After body weight measurement, back hair was shaved under isoflurane (AbbVie GK) inhalation anesthesia, and carprofen was subcutaneously administered to the rats. Then, an incision of approximately 1 cm at the maximum was made on the cranial side in the back. An osmotic minipump Alzet (Muromachi Kikai Co., Ltd.) containing testosterone and compound 17-F or finasteride (Sigma-Aldrich Co. LLC) was subcutaneously implanted. From this osmotic pump, testosterone (3 mg/kg body weight/day) (Sigma-Aldrich Co. LLC) and compound 17-F (0.1 mg/body weight/day or 1 mg/kg body weight/day) or finasteride (0.1 mg/kg body weight/day or 1 mg/kg body weight/day) were continuously administered for 28 days. Since the implantation of the osmotic pump, the rats were allowed to freely ingest customized feed AIN-93G (Oriental Yeast Co., Ltd.) free from components derived from soybeans.
3) Photographing of Skin and Harvesting of Prostate
After a lapse of 28 days, body weights were measured, and subsequently, the rats were euthanized by blood letting under isoflurane anesthesia. Back hair was shaved, followed by photographing. Then, the abdominal cavity was opened to harvest the prostate on the ventral side. Wet weights were measured.

Molecule `Oc1ccc(CC(c2ccc(O)cc2)C2CCCCC2)cc1` (stereo not shown) [Compound 4, 4,4′-(1-cyclohexylethane-1,2-diyl)diphenol] had a melting point of 74 to 76 °C.

Take `CC(C)(C)NC(=O)[C@H]1CC[C@H]2[C@@H]3CC[C@H]4NC(=O)C=C[C@]4(C)[C@H]3CC[C@]12C` [finasteride, reference compound]: the “skin browning induced by testosterone (sebum secretion, FIG. 3)” value in series [1] is on record as “such an inhibitory effect was not confirmed”. For the same molecule, in series [2], the “size of the prostate (visual, FIG. 1)” value was “Concentration-dependent decrease in the size of the prostate” and the “weight of the prostate corrected with the body weight (FIG. 2)” value is recorded as “decreased to almost the same level as in the DMSO administration group”.
